Earlier results on four compounds are cited in publication PMC9302689 (British Journal of Clinical Pharmacology, 2022).

The conditions of data set [1]: cited from earlier work.
The conditions of data set [2]: cited from earlier work. The source holds these as a separate data set.

Take `CN(C)CCC[C@@]1(c2ccc(F)cc2)OCc2cc(C#N)ccc21` [escitalopram]: the “Effect on serum cortisol and prolactin levels” value in data set [1] is “increase levels of these hormones”.

For Buprenorphine, in data set [2], the NeuroCart effects result was “decreased adaptive tracking and saccadic peak velocity and increased body sway”.

As to `CNC1(c2ccccc2Cl)CCCCC1=O` (stereo not shown) [Ketamine], the NeuroCart effects result in data set [2] is “decreased saccadic peak velocity, adaptive tracking and alertness and increased body sway and psychedelic effects”.

As to `CN(C)CCCC1(c2ccc(F)cc2)OCc2cc(C#N)ccc21` (stereo not shown) [citalopram], the “Effect on serum cortisol and prolactin levels” value in data set [1] is recorded as “increase levels of these hormones”.
